Assay [1] concerns the target Estrogen receptor beta (Homo sapiens, UniProt Q92731).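 Also: recombinant ER-beta bound to coactivator SRC1 peptide in presence of estradiol agonist; inhibitors block coactivator peptide binding and lower the FRET signal.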
For assay [2], the target named is T1, Leucine aminopeptidase (Plasmodium falciparum 3D7, UniProt Q8IL11).
T1 sequence (Q8IL11 whole entry): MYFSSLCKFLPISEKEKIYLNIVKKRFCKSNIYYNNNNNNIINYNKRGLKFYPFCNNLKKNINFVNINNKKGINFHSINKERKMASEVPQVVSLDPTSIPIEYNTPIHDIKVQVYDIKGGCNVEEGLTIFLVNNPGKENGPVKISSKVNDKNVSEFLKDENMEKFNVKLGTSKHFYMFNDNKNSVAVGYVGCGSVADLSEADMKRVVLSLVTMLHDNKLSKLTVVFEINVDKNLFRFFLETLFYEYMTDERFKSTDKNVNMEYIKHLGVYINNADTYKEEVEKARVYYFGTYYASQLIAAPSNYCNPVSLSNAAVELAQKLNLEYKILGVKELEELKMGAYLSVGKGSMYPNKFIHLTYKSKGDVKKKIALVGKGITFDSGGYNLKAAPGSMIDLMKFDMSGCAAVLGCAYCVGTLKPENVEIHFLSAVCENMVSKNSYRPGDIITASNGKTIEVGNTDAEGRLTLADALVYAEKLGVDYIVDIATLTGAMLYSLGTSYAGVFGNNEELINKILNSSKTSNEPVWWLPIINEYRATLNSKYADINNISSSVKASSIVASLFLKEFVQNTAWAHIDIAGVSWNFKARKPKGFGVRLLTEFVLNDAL
The experiment in a line: P. falciparum M17LAP inhibitors, primary screen, biochemical, fluorogenic H-Leu-NHMec substrate, 1536-well (AID 1619). It counts as functional.

The target in assay [3] is T2, Small ubiquitin-related modifier 1 (Homo sapiens, UniProt P63165). The experiment in a line: inhibitors of SUMO1 peptide binding, dose response, biochemical, fluorescence polarization, uHTS hits (AID 624382). Particulars: read-out: IC50_Mean. It counts as functional. Background: In fluorescence polarisation assays a small probe gives low polarisation when free and higher when bound to something large.

Assay [4] has as its target T2, Small ubiquitin-related modifier 1. Put plainly: inhibitors of SUMO1 partner interactions, dose response, biochemical, FRET (AID 624383). Particulars: read-out: IC50_Mean. It is filed as functional.
The target in assay [5] is T3, Short transient receptor potential channel 4 (Mus musculus, UniProt Q9QUQ5).
T3 sequence (Q9QUQ5 whole entry): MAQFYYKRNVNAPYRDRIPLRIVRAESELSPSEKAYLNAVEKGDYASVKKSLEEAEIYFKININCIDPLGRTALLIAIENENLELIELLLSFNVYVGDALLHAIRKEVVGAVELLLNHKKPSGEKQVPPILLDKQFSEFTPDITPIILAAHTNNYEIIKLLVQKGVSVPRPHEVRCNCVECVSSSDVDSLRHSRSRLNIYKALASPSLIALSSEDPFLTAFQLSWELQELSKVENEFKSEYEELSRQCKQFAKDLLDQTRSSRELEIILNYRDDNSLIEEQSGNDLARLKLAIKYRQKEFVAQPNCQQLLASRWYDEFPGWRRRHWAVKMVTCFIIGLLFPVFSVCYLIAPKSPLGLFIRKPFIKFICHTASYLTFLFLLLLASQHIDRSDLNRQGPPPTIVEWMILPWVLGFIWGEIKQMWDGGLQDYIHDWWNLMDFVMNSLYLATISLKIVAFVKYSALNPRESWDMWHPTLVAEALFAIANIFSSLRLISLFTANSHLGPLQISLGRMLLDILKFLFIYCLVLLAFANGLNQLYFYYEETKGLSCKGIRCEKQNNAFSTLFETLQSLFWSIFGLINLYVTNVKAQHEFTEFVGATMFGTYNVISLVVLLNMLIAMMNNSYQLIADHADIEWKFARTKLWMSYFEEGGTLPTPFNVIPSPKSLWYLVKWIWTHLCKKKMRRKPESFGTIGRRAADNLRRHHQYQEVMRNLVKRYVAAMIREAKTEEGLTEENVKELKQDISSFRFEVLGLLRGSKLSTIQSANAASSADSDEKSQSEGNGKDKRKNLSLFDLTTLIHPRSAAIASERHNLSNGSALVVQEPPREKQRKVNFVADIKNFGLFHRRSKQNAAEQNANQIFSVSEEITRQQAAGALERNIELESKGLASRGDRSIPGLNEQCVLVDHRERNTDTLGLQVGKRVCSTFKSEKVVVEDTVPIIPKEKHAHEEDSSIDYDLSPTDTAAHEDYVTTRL
The experiment in a line: mouse TRPC4 channel activators, dose response, cell-based, HEK293 TRPC4/mu-opioid, Fluo-4 calcium (AID 434937). It is filed as functional.

Assay [6] concerns the target T4, Long-chain-fatty-acid--AMP ligase FadD28 (Mycobacterium tuberculosis, UniProt P9WQ59).
T4 sequence (P9WQ59 whole entry): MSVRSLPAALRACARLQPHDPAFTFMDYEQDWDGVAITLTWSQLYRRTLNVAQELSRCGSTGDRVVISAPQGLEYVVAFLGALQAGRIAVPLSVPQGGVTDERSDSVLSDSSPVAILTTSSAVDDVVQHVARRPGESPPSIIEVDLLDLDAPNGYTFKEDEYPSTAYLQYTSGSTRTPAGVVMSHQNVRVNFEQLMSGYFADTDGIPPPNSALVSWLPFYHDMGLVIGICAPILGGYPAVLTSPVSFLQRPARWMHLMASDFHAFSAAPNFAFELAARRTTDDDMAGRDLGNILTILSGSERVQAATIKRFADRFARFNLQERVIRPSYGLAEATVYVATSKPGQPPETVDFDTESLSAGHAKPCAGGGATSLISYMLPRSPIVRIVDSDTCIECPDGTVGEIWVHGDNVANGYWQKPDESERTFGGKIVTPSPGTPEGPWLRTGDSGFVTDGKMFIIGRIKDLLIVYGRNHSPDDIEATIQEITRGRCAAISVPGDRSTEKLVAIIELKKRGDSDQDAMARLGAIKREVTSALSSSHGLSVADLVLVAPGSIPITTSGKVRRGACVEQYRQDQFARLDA
Put plainly: Fluorescence polarization aasay to screen for inhibitors that compete for the binding of FadD28 to a bisubstrate Measured in Biochemical System Using Plate Reader - 2147-01_Inhibitor_Dose_CherryPick_Activity. It counts as functional, Mycobacterium tuberculosis H37Rv.

For assay [7], the target named is T5, Histone-lysine N-methyltransferase NSD2 (Homo sapiens, UniProt O96028).
T5 sequence (O96028 whole entry): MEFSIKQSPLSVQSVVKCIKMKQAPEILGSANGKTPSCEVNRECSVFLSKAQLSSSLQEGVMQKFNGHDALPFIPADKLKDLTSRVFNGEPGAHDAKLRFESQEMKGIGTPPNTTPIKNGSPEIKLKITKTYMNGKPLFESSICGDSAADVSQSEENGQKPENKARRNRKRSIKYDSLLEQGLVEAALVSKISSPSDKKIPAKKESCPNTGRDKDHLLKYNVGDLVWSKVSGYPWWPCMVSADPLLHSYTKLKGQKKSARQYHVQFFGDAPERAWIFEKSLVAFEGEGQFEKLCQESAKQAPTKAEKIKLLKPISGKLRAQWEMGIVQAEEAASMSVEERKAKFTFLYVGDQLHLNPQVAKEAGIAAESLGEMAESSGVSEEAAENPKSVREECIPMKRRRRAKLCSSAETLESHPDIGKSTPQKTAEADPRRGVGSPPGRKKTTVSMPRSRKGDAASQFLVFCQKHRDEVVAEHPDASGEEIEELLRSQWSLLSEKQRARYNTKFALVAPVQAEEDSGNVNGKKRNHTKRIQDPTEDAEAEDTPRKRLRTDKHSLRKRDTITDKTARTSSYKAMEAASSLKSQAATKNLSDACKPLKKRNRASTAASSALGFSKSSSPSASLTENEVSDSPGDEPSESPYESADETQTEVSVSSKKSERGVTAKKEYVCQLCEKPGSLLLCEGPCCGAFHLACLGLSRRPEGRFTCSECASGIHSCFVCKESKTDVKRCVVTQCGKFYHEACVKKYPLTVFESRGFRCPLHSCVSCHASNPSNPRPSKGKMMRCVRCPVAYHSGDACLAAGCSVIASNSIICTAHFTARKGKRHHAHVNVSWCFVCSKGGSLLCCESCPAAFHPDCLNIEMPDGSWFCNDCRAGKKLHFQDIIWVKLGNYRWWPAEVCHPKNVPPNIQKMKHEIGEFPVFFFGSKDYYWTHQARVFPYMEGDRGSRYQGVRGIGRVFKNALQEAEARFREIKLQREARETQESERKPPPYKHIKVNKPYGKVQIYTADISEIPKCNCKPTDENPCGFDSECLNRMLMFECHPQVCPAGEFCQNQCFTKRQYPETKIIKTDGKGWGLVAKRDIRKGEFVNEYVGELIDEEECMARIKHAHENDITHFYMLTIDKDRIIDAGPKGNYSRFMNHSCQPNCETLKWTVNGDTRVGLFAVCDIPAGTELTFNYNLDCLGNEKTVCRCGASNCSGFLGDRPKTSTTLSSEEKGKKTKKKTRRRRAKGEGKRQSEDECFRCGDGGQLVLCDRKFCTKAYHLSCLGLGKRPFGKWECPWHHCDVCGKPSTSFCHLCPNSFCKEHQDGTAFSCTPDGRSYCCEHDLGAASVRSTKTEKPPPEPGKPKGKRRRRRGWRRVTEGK
It is filed as biochemical.

In assay [8] the target is T6, High affinity choline transporter 1 (Homo sapiens, UniProt Q9GZV3).
T6 sequence (Q9GZV3 whole entry): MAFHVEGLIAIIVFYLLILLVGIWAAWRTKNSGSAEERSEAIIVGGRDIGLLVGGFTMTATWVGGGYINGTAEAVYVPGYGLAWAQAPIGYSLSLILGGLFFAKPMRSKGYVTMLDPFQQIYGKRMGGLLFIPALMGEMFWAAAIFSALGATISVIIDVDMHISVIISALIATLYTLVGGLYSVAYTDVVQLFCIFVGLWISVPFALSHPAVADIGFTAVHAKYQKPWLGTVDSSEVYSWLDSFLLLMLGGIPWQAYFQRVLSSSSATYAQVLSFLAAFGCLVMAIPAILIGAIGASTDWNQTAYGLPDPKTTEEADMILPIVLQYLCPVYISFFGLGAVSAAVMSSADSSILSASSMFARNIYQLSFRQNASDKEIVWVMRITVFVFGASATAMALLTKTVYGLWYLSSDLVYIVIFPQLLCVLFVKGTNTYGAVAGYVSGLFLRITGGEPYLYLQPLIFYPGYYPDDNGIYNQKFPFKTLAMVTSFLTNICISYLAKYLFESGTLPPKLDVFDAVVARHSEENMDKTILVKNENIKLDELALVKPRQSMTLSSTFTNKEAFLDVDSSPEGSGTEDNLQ
The experiment in a line: CHT inhibitors, dose response, cell-based, 5-point CRC, membrane potential dye (AID 504840). It is filed as functional.

The target of assay [9] is Genome polyprotein (dengue virus type 2, UniProt P29990). Put plainly: Dengue-2 NS5 methyltransferase inhibitors, primary screen, biochemical, confirmation dose response (AID 588689). It is filed as functional.
The target in assay [10] is T7, Fatty acid synthase (Homo sapiens, UniProt P49327). The experiment in a line: FAS thioesterase domain inhibitors, dose response, biochemical, kinetic fluorescence intensity (AID 624326).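 Also: rate of fluorescence rise from hydrolysis of a fluorogenic O-methyl fluorescein ester substrate.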 It counts as functional.
The target of assay [11] is T7, Fatty acid synthase. The experiment in a line: FAS thioesterase domain inhibitors, dose response, biochemical, endpoint fluorescence intensity, uHTS hits (AID 624327).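 Also: fluorescence from hydrolysis of an O-methyl fluorescein acyl ester substrate by the enzyme.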 It counts as functional.
For assay [12], the target named is Albumin (Bos taurus, UniProt P02769). Put plainly: Counterscreen for inhibitors of T-cell receptor (TCR)-CD3 interaction: Fluorescence-based biochemical high throughput dose response assay to identify inhibitors of T-cell receptor (TCR)-CD3 interaction using a TAMRA-labeled BSA probe. It is filed as functional. For orientation: The purpose of a counterscreen is to sort out artefacts and off-target activity.

Activity calls are given as the source filed them.

By EC50 is commonly meant the midpoint of the concentration-response curve. For orientation: AC50 means the concentration giving half of the maximal activity seen.

T7 sequence (P49327 whole entry, the tested form may be a part): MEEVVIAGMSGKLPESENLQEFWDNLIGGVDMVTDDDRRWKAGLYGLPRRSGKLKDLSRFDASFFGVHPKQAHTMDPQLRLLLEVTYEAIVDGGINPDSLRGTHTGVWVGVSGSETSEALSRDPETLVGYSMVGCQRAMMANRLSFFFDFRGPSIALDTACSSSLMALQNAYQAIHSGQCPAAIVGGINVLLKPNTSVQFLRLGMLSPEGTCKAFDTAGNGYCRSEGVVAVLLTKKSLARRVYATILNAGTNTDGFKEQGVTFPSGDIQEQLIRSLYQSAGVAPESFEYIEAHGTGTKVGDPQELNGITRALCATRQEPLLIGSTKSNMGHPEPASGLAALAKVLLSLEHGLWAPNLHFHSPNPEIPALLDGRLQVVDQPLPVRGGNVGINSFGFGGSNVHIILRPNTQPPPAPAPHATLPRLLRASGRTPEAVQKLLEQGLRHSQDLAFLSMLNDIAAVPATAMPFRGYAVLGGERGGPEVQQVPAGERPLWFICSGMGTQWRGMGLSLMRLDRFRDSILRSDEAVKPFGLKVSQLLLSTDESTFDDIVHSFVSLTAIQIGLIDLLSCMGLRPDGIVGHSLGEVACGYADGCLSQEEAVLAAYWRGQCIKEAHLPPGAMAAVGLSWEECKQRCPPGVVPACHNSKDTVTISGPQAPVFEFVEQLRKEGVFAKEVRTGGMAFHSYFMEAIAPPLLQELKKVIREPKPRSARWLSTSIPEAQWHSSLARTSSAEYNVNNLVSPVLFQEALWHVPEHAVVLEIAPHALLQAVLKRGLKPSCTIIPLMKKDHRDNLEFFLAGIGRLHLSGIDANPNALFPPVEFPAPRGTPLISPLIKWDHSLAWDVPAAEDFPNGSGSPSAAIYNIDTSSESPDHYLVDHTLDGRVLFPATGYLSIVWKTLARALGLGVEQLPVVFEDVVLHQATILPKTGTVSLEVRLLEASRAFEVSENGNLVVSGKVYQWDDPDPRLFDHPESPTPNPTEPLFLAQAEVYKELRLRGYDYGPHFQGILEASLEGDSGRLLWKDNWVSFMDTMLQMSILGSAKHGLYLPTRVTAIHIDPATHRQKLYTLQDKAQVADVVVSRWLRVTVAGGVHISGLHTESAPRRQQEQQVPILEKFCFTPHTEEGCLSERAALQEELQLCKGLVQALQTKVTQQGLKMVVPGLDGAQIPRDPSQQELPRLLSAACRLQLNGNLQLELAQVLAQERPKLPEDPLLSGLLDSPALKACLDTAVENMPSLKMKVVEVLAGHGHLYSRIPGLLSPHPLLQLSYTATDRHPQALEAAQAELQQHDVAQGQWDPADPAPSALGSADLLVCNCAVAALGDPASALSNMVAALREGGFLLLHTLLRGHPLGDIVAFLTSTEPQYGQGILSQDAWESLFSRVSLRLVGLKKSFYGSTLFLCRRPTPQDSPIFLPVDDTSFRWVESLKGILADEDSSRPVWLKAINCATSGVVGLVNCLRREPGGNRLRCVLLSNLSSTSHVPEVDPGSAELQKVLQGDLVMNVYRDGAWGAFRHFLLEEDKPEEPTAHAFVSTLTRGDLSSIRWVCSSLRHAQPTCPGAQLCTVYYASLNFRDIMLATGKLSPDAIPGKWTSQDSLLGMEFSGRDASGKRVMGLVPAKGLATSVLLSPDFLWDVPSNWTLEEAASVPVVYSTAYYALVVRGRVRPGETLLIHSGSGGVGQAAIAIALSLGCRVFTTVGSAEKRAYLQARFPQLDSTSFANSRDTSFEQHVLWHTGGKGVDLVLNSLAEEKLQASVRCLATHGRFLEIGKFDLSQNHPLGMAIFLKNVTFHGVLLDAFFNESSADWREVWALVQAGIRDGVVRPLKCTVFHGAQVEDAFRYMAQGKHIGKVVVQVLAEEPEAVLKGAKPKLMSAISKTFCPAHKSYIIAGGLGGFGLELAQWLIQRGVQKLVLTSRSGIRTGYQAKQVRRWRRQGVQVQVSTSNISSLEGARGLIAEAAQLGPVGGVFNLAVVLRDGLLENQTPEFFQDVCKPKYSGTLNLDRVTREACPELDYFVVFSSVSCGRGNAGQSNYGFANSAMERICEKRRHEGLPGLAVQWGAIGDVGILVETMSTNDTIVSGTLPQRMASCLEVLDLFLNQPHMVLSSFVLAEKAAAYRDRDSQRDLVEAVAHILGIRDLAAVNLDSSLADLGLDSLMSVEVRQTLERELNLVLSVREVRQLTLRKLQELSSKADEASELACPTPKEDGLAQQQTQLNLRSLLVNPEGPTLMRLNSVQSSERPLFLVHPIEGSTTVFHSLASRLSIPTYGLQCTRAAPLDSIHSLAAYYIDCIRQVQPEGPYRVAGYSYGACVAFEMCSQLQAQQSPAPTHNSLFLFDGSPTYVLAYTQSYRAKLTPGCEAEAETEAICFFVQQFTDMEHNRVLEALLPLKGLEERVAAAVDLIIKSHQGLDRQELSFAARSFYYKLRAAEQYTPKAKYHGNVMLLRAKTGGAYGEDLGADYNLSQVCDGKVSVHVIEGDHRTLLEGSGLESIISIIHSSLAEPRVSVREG
T2 sequence (P63165 whole entry): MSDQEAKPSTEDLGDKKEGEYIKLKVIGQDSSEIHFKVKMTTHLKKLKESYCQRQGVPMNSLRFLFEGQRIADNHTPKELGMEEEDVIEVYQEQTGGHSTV
Chain of Estrogen receptor beta (Q92731 whole entry): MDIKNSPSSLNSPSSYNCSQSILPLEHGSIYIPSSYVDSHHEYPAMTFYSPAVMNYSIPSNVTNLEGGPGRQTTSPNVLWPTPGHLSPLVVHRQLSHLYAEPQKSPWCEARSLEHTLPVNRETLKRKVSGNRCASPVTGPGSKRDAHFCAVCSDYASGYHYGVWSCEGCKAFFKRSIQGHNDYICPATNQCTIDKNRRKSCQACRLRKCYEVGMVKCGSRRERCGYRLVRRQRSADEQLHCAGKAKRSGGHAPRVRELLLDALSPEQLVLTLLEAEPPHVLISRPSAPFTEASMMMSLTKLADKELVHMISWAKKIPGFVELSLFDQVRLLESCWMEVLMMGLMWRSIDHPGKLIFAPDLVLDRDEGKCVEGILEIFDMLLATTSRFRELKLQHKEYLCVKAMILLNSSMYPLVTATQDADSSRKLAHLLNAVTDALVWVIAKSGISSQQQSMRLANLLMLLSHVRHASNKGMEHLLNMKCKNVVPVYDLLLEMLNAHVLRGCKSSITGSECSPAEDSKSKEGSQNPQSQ
Chain of Albumin (P02769 whole entry): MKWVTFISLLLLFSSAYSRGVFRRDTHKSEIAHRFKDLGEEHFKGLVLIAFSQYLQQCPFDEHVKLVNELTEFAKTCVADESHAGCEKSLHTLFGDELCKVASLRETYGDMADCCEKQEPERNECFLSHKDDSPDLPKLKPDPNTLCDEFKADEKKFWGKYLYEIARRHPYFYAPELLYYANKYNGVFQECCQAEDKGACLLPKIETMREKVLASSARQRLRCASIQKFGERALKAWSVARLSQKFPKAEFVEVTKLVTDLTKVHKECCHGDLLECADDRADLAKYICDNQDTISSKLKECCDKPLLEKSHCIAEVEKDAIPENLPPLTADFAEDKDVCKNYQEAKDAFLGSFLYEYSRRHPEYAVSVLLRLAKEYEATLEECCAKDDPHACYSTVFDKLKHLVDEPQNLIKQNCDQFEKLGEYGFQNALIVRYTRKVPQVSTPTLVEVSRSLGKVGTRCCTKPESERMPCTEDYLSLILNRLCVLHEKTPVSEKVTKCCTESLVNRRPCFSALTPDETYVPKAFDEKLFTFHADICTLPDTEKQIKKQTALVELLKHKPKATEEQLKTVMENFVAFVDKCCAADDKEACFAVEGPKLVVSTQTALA
Chain of Genome polyprotein (P29990 2492-3391 limits assumed): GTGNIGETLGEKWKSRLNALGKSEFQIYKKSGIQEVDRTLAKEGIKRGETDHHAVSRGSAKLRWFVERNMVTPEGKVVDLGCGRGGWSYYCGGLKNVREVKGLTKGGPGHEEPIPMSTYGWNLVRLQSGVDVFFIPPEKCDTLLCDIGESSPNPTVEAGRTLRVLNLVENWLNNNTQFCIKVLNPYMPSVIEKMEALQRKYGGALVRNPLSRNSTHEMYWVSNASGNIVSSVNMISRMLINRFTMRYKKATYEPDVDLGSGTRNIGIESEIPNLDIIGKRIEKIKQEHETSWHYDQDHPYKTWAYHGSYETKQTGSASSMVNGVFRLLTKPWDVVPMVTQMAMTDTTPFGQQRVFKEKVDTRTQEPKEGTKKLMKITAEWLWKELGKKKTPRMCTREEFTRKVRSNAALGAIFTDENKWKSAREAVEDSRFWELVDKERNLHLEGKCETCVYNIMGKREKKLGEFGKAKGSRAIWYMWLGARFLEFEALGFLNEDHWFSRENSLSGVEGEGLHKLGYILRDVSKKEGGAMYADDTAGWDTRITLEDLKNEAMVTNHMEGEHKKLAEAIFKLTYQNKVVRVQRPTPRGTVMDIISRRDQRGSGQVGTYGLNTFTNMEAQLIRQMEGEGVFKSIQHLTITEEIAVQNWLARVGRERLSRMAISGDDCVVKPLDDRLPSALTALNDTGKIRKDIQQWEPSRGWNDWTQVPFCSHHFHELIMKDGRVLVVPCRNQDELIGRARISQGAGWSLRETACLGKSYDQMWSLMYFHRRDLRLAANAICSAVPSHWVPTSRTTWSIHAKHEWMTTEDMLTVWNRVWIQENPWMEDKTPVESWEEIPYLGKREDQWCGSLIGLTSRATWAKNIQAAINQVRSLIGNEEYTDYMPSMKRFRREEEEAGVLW

On to `CC(C)CSc1nc2c(c(=O)[nH]c(=O)n2C)n1CC(O)COc1cccc2ccccc12` (configuration not stated), for which, in [1], the IC50 is reported as > 50 µM (not active).
In the case of `Cc1onc(-c2ccccc2)c1C(=O)NNC(=S)NC(=O)c1ccc(F)cc1`, the figures for the IC50 in [2], in assay [3] and in assay [4] were 79.4 µM (active), > 66.6 µM (inactive) and 100 µM (inactive), respectively. In addition, the EC50 in assay [5] was 5.96 µM (active).
Take `CC(=O)c1cccc(NC(=O)NC2CCCCCCC2)c1`: the AC50 in [6] was > 100 µM (inactive).
Take `CNCCCC1Sc2ccccc2Oc2ccccc21` (configuration not stated): the AC50 in assay [7] is 9.84 µM (active).
Turning to `CCCn1nc(NS(=O)(=O)c2cccc3nonc23)c2cc3cccc(C)c3nc21`, the AC50 in [6] was > 100 µM (inactive). Also, the IC50 in assay [8] is 3.54 µM (active); in assay [9] it was 39.8 µM (active).
As to `O=C(CC(C(=O)O)c1ccc(Cl)cc1)c1ccc(Cl)c(Cl)c1` (configuration not stated), the IC50 was 4.21 µM (active) in [10] and 2.11 µM (active) in assay [11].
As for `C=CCn1c(SCc2cc([N+](=O)[O-])cc3c2OCOC3)nc2cc(C(=O)O)ccc2c1=O`, the IC50 in [10] is 1.6 µM (active); in [11] it was 2.57 µM (active).
In the case of `CSc1ncc(Cl)c(C(=O)Nc2nnc(SC/C=C/c3ccccc3)s2)n1`, the AC50 in assay [6] is > 100 µM (inactive).
With `COc1ccc(C(=O)NC(CC(=O)O)c2cc([N+](=O)[O-])ccc2Cl)c(SC)c1` (configuration not stated), the IC50 in assay [10] was 8.79 µM (active); in assay [11], 7.33 µM (active).
For `C=CCNC(=O)/C(=C\c1ccc(OC)cc1)NC(=O)c1ccc([N+](=O)[O-])cc1`, in that order: 2.21 µM (active) and 2.93 µM (active).
Regarding `O=C(O)CCc1ccc(-c2ccc(Cl)cc2)n1Cc1ccco1`, the AC50 in assay [6] was 21.8 µM (active).
Still for that read-out and setting: for `Cc1cccc(C(=O)NNC(=O)c2ccc(NS(=O)(=O)c3cccs3)cc2)c1C` the value was 43.8 µM (active).
As for `C=CCNC(=S)NNC(=O)c1cccn(Cc2cccc(Cl)c2)c1=O`, the IC50 in assay [12] is > 94.1 µM (inactive).

For the origin of these results see ChEMBL document CHEMBL1201862, “PubChem BioAssay data set” (2004).
